From ChEMBL document CHEMBL3885861, “Open TG-GATES”

Organism: Rattus norvegicus
Assay: Open TG-GATES - Regimen: Single
Format: toxicity, organism-based, Sprague-Dawley
Design: regimen Single, gender Male, age 6 weeks
Conditions: in vivo, po, 15 mg/kg, route gavage, dose level Low; for APTT / Bas / Eos / Fbg / Hb / Ht / Lym / MCH / MCHC / MCV / Mono / Neu / PT / Plat / RBC / Ret / WBC: tissue Blood; for KIDNEY_L / KIDNEY_R / KIDNEY_TOTAL: tissue Kidney; for LIVER: tissue Liver; for A/G / ALP / ALT / AST / BUN / CRE / Ca / Cl / DBIL / GLC / IP / K / LDH / Na / PL / RALB / TBIL / TC / TG / TP / gamma-GTP: tissue Plasma

O=c1ccc2ccccc2o1 [COUMARIN]
TERMINAL_BW (3 h): 178.4 g
APTT (3 h): 16.5 s
Bas (3 h): 0%
Eos (3 h): 1%
Fbg (3 h): 205.2 mg/dL
Hb (3 h): 13.6 g/dL
Ht (3 h): 40.8%
Lym (3 h): 82.2%
MCH (3 h): 21.3 pg
MCHC (3 h): 33.4%
MCV (3 h): 63.7 fL
Mono (3 h): 3.8%
Neu (3 h): 13.4%
PT (3 h): 12.4 s
Plat (3 h): 97.1 x10_4/uL
RBC (3 h): 640 x10_4/ul
Ret (3 h): 8.2%
WBC (3 h): 97 x10_2/uL
KIDNEY_L (3 h): 0.8 g
KIDNEY_R (3 h): 0.8 g
KIDNEY_TOTAL (3 h): 1.7 g
LIVER (3 h): 8 g
A/G (3 h): 2
ALP (3 h): 1069.4 IU/L
ALT (3 h): 41.6 IU/L
AST (3 h): 71.8 IU/L
BUN (3 h): 10.2 mg/dL
CRE (3 h): 0.4 mg/dL
Ca (3 h): 10.6 mg/dL
Cl (3 h): 105.6 meq/L
DBIL (3 h): 0.006 mg/dL
GLC (3 h): 182.4 mg/dL
IP (3 h): 10.4 mg/dL
K (3 h): 4.7 meq/L
LDH (3 h): 84.8 IU/L
Na (3 h): 138 meq/L
PL (3 h): 161.6 mg/dL
RALB (3 h): 3.9 g/dL
TBIL (3 h): 0.4 mg/dL
TC (3 h): 86 mg/dL
TG (3 h): 115 mg/dL
TP (3 h): 5.9 g/dL
gamma-GTP (3 h): 1.4 IU/L
TERMINAL_BW (6 h): 180.2 g
APTT (6 h): 16.4 s
Bas (6 h): 0%
Eos (6 h): 1.2%
Fbg (6 h): 189.2 mg/dL
Hb (6 h): 13.5 g/dL
Ht (6 h): 40.5%
Lym (6 h): 76%
MCH (6 h): 21.9 pg
MCHC (6 h): 33.2%
MCV (6 h): 65.9 fL
Mono (6 h): 5%
Neu (6 h): 18.4%
PT (6 h): 12.5 s
Plat (6 h): 109.6 x10_4/uL
RBC (6 h): 614.6 x10_4/ul
Ret (6 h): 9.4%
WBC (6 h): 95.4 x10_2/uL
KIDNEY_L (6 h): 0.8 g
KIDNEY_R (6 h): 0.8 g
KIDNEY_TOTAL (6 h): 1.7 g
LIVER (6 h): 8 g
A/G (6 h): 2.1
ALP (6 h): 872 IU/L
ALT (6 h): 33.6 IU/L
AST (6 h): 65 IU/L
BUN (6 h): 9 mg/dL
CRE (6 h): 0.4 mg/dL
Ca (6 h): 10.3 mg/dL
Cl (6 h): 107.2 meq/L
DBIL (6 h): 0.004 mg/dL
GLC (6 h): 189.6 mg/dL
IP (6 h): 10.4 mg/dL
K (6 h): 5.2 meq/L
LDH (6 h): 88 IU/L
Na (6 h): 138 meq/L
PL (6 h): 136 mg/dL
RALB (6 h): 3.7 g/dL
TBIL (6 h): 0.3 mg/dL
TC (6 h): 75.2 mg/dL
TG (6 h): 63 mg/dL
TP (6 h): 5.5 g/dL
gamma-GTP (6 h): 1.2 IU/L
TERMINAL_BW (9 h): 177.8 g
APTT (9 h): 16.1 s
Bas (9 h): 0%
Eos (9 h): 0.8%
Fbg (9 h): 198.2 mg/dL
Hb (9 h): 13.2 g/dL
Ht (9 h): 40.1%
Lym (9 h): 78.2%
MCH (9 h): 22 pg
MCHC (9 h): 33%
MCV (9 h): 66.6 fL
Mono (9 h): 6.4%
Neu (9 h): 14.6%
PT (9 h): 12.3 s
Plat (9 h): 103 x10_4/uL
RBC (9 h): 602 x10_4/ul
Ret (9 h): 8.7%
WBC (9 h): 85.8 x10_2/uL
KIDNEY_L (9 h): 0.8 g
KIDNEY_R (9 h): 0.9 g
KIDNEY_TOTAL (9 h): 1.7 g
LIVER (9 h): 7.2 g
A/G (9 h): 2.3
ALP (9 h): 849 IU/L
ALT (9 h): 30.6 IU/L
AST (9 h): 62 IU/L
BUN (9 h): 9.8 mg/dL
CRE (9 h): 0.5 mg/dL
Ca (9 h): 10.6 mg/dL
Cl (9 h): 106.8 meq/L
DBIL (9 h): 0.03 mg/dL
GLC (9 h): 195 mg/dL
IP (9 h): 11.6 mg/dL
K (9 h): 5.1 meq/L
LDH (9 h): 102 IU/L
Na (9 h): 139.4 meq/L
PL (9 h): 141 mg/dL
RALB (9 h): 3.8 g/dL
TBIL (9 h): 0.3 mg/dL
TC (9 h): 81.4 mg/dL
TG (9 h): 37.4 mg/dL
TP (9 h): 5.5 g/dL
gamma-GTP (9 h): 1.2 IU/L
TERMINAL_BW (24 h): 189.8 g
APTT (24 h): 15.7 s
Bas (24 h): 0%
Eos (24 h): 1%
Fbg (24 h): 208.2 mg/dL
Hb (24 h): 13.2 g/dL
Ht (24 h): 39.7%
Lym (24 h): 74.2%
MCH (24 h): 22.3 pg
MCHC (24 h): 33.3%
MCV (24 h): 66.9 fL
Mono (24 h): 10.6%
Neu (24 h): 14.2%
PT (24 h): 12.2 s
Plat (24 h): 102.6 x10_4/uL
RBC (24 h): 594.2 x10_4/ul
Ret (24 h): 8.2%
WBC (24 h): 102.3 x10_2/uL
KIDNEY_L (24 h): 0.9 g
KIDNEY_R (24 h): 0.9 g
KIDNEY_TOTAL (24 h): 1.8 g
LIVER (24 h): 9.3 g
A/G (24 h): 2.1
ALP (24 h): 972.2 IU/L
ALT (24 h): 43 IU/L
AST (24 h): 68.2 IU/L
BUN (24 h): 14 mg/dL
CRE (24 h): 0.5 mg/dL
Ca (24 h): 10.9 mg/dL
Cl (24 h): 106.2 meq/L
DBIL (24 h): 0.01 mg/dL
GLC (24 h): 190.8 mg/dL
IP (24 h): 8.4 mg/dL
K (24 h): 5.2 meq/L
LDH (24 h): 97.4 IU/L
Na (24 h): 137.8 meq/L
PL (24 h): 140.4 mg/dL
RALB (24 h): 3.8 g/dL
TBIL (24 h): 0.3 mg/dL
TC (24 h): 76.8 mg/dL
TG (24 h): 77.2 mg/dL
TP (24 h): 5.7 g/dL
gamma-GTP (24 h): 1 IU/L
